One block for each compound: values may come before it.
Key:
[1] = Binding affinity to 1A1 Bacillus subtilis xpt-pbuX RNA guanine riboswitch; settings: read-out: Kd(app)
[2] = Inhibition of [gamma-32P]ATP labelled (CUG)4 RNA (unknown origin) binding to recombinant His6-tagged MBNL1N (1 to 272 residues) after 10 -15 mins incubation in presence of tRNA by SDS-PAGE analysis
[3] = Binding affinity to Aspergillus oryzae RNA TPP riboswitch after 40 hrs by SDS-PAGE analysis; settings: read-out: Kd(app)
[4] = Inhibition of poly(CUG) RNA (unknown origin) splicing expressed in human Hela cells assessed as decrease in toxicity after 24 hrs by WST-1 assay; assay type: cell-based
[5] = Inhibition of poly(CUG) RNA (unknown origin) binding to recombinant N-terminal PL-MBNL1 preincubated for 30 mins followed by protein addition after 1 hr in presence of tRNA by enzyme fragment complementation assay
Quadruplex DNA = assay: Binding affinity to biotin-labeled c-Myc Pu22 G-quadruplex DNA (unknown origin) assessed as […] by surface plasmon resonance assay; assay type: nucleic-acid assay
Hepatitis C virus = assay: Antiviral activity against Hepatitis C virus genotype 1b infected in BM4-5 FEO replicon cells after 48 hrs by bright-glo luciferase reporter gene assay; assay type: functional, organism-based, Hepacivirus hominis; settings: BM4-5, 48 h
[6] = Binding affinity to Bacillus subtilis ribD RNA FMN riboswitch after 40 to 48 hrs by SDS-PAGE analysis; settings: read-out: Kd(app)
[7] = Binding affinity bacterial RNA purine riboswitch sequence by isothermal titration calorimetry; parameters: species or system Bacteria; settings: read-out: Kd(app)
[8] = Binding affinity to 1A1 Bacillus subtilis 179 lysC RNA lysine riboswitch by probing analysis; settings: read-out: Kd(app)

- Kd [1]: 0.02 µM
Compound: ONc1ncnc2[nH]cnc12

- Ki [2]: 52 µM
Compound: COc1ccc2nc3cc(Cl)ccc3c(NCCCCNc3nc(N)nc(N)n3)c2c1

- Kd [3]: 0.02 µM
Compound: Cc1ncc(C[n+]2cccc(CCO)c2C)c(N)n1

Compound: O=C(Nc1ccc(-c2nc3ccccc3[nH]2)cc1)c1ccc(-c2ccc(Cl)cc2)o1
- Ki [4]: 128 µM

- Ki [5]: 3 µM
Compound: CN(C(=O)[C@@H]1CCCN1C(=O)c1ccc2c(c1)OCO2)[C@@H](CS)C(=O)N[C@@H](CCCCN)C(=O)NCCCN

- Kd (Quadruplex DNA): 4.5 µM
Compound: Cc1ccc(NC(=O)c2c(C)oc3ccc(O)c(CN4CCCCCC4)c23)cc1

- IC50 (Hepatitis C virus): 10 µM
Compound: CC(=O)c1ccc(C(=O)N[C@@H](CCCCN)C(=O)N2C[C@H](N)C[C@H](N)C2)cc1

- Kd [6]: 0.1 µM
Compound: Cc1cc2nc3c(=O)[nH]c(=O)nc-3n(C[C@@H](O)[C@@H](O)[C@@H](O)CO)c2cc1N(C)C

- Kd [7]: 0.004 µM
Compound: Nc1nc(N)c2nc[nH]c2n1 [2,6-DIAMINOPURINE]

- Kd [8]: 2.5 µM
Compound: NCCS(=O)(=O)C[C@H](N)C(=O)O

Compound: Nc1cccc(-c2nc3cc(-c4ccc5[nH]c(-c6cccc(N)c6)nc5c4)ccc3[nH]2)c1
- Ki [4]: 50 µM

Source: ChEMBL document CHEMBL4177651, “RNA as a small molecule druggable target” (Bioorg Med Chem Lett, 2017)
